Test in all cases: Enzyme Assay
Holding throughout (conditions): pH 7.4; 30 °C

Test [1] has as its target Calcium/calmodulin-dependent protein kinase II inhibitor 2 (Bos taurus, UniProt A5D7T0).
For test [2], the target named is Protein kinase C alpha type (Homo sapiens, UniProt P17252).
For test [3], the target named is cAMP-dependent protein kinase type I-alpha regulatory subunit (Bos taurus, UniProt P00514).
The target in test [4] is Casein kinase II subunit alpha (Homo sapiens, UniProt P68400). On the procedure:
(§1) Casein kinase activities were determined under the conditions as described by Huang et al (1982).

The target in test [5] is Casein kinase I isoform alpha (Homo sapiens, UniProt P48729). On the procedure: as §1
Chain of Casein kinase I isoform alpha (P48729 whole entry, canonical isoform): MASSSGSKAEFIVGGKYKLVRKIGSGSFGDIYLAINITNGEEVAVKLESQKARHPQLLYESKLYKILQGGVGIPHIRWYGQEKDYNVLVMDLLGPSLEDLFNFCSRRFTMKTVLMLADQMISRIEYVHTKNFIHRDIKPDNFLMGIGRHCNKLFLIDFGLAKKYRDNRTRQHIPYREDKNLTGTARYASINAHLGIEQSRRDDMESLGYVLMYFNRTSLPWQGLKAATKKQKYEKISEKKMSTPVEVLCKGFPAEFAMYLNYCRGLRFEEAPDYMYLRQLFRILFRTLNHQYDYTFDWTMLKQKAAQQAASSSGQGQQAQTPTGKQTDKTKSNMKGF

Chain of cAMP-dependent protein kinase type I-alpha regulatory subunit (P00514 whole entry): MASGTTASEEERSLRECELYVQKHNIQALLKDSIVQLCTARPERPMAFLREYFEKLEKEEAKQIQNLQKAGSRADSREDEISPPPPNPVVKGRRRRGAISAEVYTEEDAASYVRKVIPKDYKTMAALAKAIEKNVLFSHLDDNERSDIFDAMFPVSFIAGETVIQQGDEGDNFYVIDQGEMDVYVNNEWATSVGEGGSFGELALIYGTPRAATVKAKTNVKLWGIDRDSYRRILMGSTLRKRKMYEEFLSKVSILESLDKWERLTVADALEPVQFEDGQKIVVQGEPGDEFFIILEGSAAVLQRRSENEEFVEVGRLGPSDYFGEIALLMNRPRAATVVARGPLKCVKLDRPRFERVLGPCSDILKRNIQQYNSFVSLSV
Chain of Calcium/calmodulin-dependent protein kinase II inhibitor 2 (A5D7T0 whole entry): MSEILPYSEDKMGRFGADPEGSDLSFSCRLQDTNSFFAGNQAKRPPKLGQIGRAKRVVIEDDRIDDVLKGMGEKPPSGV
Chain of Casein kinase II subunit alpha (P68400 whole entry): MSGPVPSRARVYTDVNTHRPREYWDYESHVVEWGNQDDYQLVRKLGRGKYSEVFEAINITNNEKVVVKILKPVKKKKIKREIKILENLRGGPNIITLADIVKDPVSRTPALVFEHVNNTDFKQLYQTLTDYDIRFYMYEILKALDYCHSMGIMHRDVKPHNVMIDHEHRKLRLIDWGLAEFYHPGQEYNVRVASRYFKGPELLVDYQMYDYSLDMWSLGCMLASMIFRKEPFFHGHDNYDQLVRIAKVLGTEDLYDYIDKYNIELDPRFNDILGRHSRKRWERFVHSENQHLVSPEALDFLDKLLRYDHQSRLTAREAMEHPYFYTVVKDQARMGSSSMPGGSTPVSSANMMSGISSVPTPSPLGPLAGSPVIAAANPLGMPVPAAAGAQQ

A word on the IC50: it is the concentration at which inhibition is half-maximal. For the compound `NCCNS(=O)(=O)c1cccc2cnccc12` [Isoquinoline-5-sulfonic acid (2-amino-ethyl)-amide], the IC50 in test [1] was 58 µM; in test [2], 18 µM; in test [3], 3.6 µM; in test [4] it was more than 300 µM; in test [5], 110 µM.

`NCCNS(=O)(=O)c1cccc2ccncc12` [Isoquinolinesulfonamide, CKI-6]: the IC50 in test [1] was 840 µM; in test [2], more than 1000 µM; in test [3], more than 1000 µM; in test [4] it was more than 300 µM; in test [5], 50 µM.

Turning to `NCCNS(=O)(=O)c1ccc(Cl)c2ccncc12` [Isoquinolinesulfonamide, CKI-7], the IC50 in test [1] is 195 µM; in test [2] it was more than 1000 µM; in test [3] it was 550 µM; in test [4], 90 µM; in test [5], 9.5 µM.

The values above are taken from BindingDB's records for PubMed 2925675 (Nagoya University School of Medicine, 1989).
